Measured values taken from US7820665B2, “Imidazopyridazine inhibitors of PI3 kinase for cancer treatment” (Amgen Inc., priority 2007, dated 2010).
Read-outs that look alike come from different tables or passages of the source.

Tests used:
[1] = target: T1, PI3Kα (Homo sapiens, UniProt P42336); test: In vitro PI3 kinase enzyme assay (PI3K ATPLoss); type: biochemical; conditions: recombinant p110α/p85, residual ATP by bioluminescence
T1 construct: Full length p110 subunits of PI3K α, β and δ, N-terminally labeled with polyHis tag; polyHis (N); made in house; host or cells: Sf9 insect cells (baculovirus)
Description: Full length p110 subunits of PI3K α, β and δ, N-terminally labeled with polyHis tag, can be co-expressed with p85 with Baculo virus expression vectors in sf9 insect cells. P110/p85 heterodimers can be purified by sequential Ni-NTA, Q-HP, Superdex-100 chromatography. Purified α, β and δ isozymes can be stored at −20° C. in 20 mM Tris, pH 8, 0.2M NaCl, 50% glycerol, 5 mM DTT, 2 mM Na cholate. Truncated PI3Kγ, residues 114-1102, N-terminally labeled with polyHis tag, can be expressed with Baculo virus in Hi5 insect cells. The γ isozyme can be purified by sequential Ni-NTA, Superdex-200, Q-HP chromatography. The γ isozyme can be stored frozen at −80° C. in NaH2PO4, pH 8, 0.2M NaCl, 1% ethylene glycol, 2 mM β-mercaptoethanol.
PI3K enzyme assays (alpha, beta, delta and gamma) can be performed in 25 μL with the above final concentrations of components in white polyproplyene plates. Phosphatidyl inositol phosphoacceptor, PtdIns(4,5)P2 (e.g. P4508) can be obtained from Echelon Biosciences, Salt Lake City, Utah. The ATPase activity of the alpha and gamma isozymes may not be greatly stimulated by PtdIns(4,5)P2 under these conditions, it can be omitted from the assay of these isozymes. Test compounds can be dissolved in DMSO and diluted with three-fold serial dilutions. The compound in DMSO (1 μL) may be added per test well, and the inhibition relative to reactions containing no compound, with and without enzyme can be determined. After assay incubation at RT, the reaction can be stopped and residual ATP can be determined by addition of an equal volume of a commercial ATP bioluminescence kit (Perkin Elmer EasyLite, Perkin Elmer, Waltham, Mass.) according to the manufacturer's instructions, and detected using an Analyst GT luminometer.

[2] = system: Akt phosphorylation at Ser473 in HCT116 cells; test: Cell-based phospho-AKT Ser473 assay (HCT116 Cell), MSD sandwich immunoassay;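 further: IGF-1 added at 100 ng/mL for 15 min after compound treatment, electrochemiluminescent readout of phospho-Akt, DMSO-only wells define maximum signal, IC50 reflects inhibition of phosphorylation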
Description: This assay determines the ability of a compound to inhibit the phosphorylation of Serine 472 in Akt using a MSD based sandwich immunoassay (Meso Scale Detection, Meso Scale Discovery (MSD), Gaithersburg, Md.). HCT116 human colon carcinoma cell lines can be grown in McCoy's 5A growth medium (GIBCO, Carlsbad, Calif.) containing 10% FBS (GIBCO, Carlsbad, Calif.) and X1 Penicillin-streptomycin-glutamine (GIBCO, Carlsbad, Calif.). Prior to the assay, cells can be detached from the culture flask with trypsin, and re-suspended in complete media to give a final concentration of 1.6×10^5 cells per mL. Aliquots (100 μl) of the HCT116 cell suspension can be seeded into each well of a 96 well tissue culture plate to give a final density of 16,000 cells per well. Cells can then be incubated overnight at 37° C.
The following day the cells can be treated with serially diluted test compounds and incubated for 2 hours at 37° C. The culture media on the HCT 116 cells can be replaced with 189 μL McCoys media, supplemented with 0.1% BSA (ICN Biomedicals, Inc., Costa Mesa, Calif.). […] Aliquots (1 μL) of serially-diluted compounds can be transferred to 96 well tissue culture plates containing the HCT 116 cells. […] As a maximum response control, wells can contain 0.5% DMSO in place of compound. The plates can be mixed at 700 rpm for 2 min to ensure even distribution of the test compound and incubated for 2 hours at 37° C. Cells can then be stimulated with insulin-like growth factor 1 (Sigma, St Louis, Mo.) at final concentration of 100 ng/mL for 15 minutes at 37° C. The media can then be removed and the cells treated with 80 μL cell-lysis buffer (MSD) containing a cocktail of protease and phosphatase inhibitors for one hour at 4° C.
25 μL Cell lysate can then be transferred to pre-blocked MSD assay plates pre-coated with a capture antibody specific for Akt, and the plates can be incubated for 2 hours at room temperature. The cell lysates can then be removed and plates can then be washed four times with 200 μl per well of Tris wash buffer (500 mM Tris, PH 7.5, 1.5 M NaCl, 0.2% Tween-20). Subsequently cells can be incubated for 1 hour at room temperature with a 25 μL solution containing the detection antibody, anti-phospho Akt (Ser 473) labeled with an electrochemiluminescent compound (Meso Scale Discovery SULPHO-TAG™ label, MSD, Gaithersburg, Md.). The detection antibody can be removed and plates can then be washed four times with 200 μL per well of Tris wash buffer. An aliquot of 150 μL of diluted MSD read buffer can then be applied to each well, and the electrochemiluminescent signal can be measured using a MSD SECTOR™ plate reader (Meso Scale Discovery, Gaithersburg, Md.). This instrument measures the intensity of emitted light to determine a quantitative measure of phosphorylated Akt in each well. The dose-response data obtained with each compound can be analyzed and the IC50 inhibition of Akt phosphorylation at Ser473 can be calculated.

[3] = system: phosphorylation of Akt at Serine 473 in U87 MG cells; test: pAkt AlphaScreen (U87 Cell); type: cell-based; conditions: 2 h compound, pAkt Ser473 AlphaScreen
Description: The pAkt AlphaScreen® assay (PerkinElmer, Waltham, Mass.) determines whether there is phosphorylation of Akt at Serine 473 by recruitment of a phosphospecific antibody. This assay was performed using U87 MG cells. The U87 growth media consists of MEM (Gibco, Carlsbad, Calif.) supplemented with 10% FBS (Gibco), 1× Non-Essential Amino Acids (Gibco) and 1× Penicillin/Streptomycin/Glutamine (Gibco). The cells were maintained weekly using 0.05% Trypsin (Gibco) and replated in 150 mm TC-Treated Culture Dishes (Corning, Corning, N.Y.).
The first day of the assay, the adherent cells were trypsinized, media was added to the loose cells and cells were mixed to a homogenous mixture. 0.5 ml of the homogenous mixture was counted on the Beckman Coulter® Vi-CELL™ XR (Fullerton, Calif.). 50 frames of cells were counted and the number of viable cells was determined. The cells were then diluted to 0.25 million cells per ml, and centrifuged at 200 rcf for 5 minutes. The media was removed and the cells were reconstituted in fresh media for plating. The cells were plated at 20 μl per well on the PerkinElmer® Flexprop PLUS in Low Volume 384 Well White Tissue Culture Plates (Corning) with a final cell density of 5K cells per well. The plates were incubated overnight at 37° Celsius, 5% CO2.
On the second day, the compound plates were prepared, the cells were treated with compound and the pAkt reaction mix was added to the cell lysate. 384 well compound plates were prepared containing 1 μl of compound per well starting at 5 mM and diluted 1:2 across the row, resulting in a 22 well serial dilution. 39 μl of growth media was added to the compound plate in rows 1-22 using the PerkinElmer® FlexDrop PLUS resulting in a DMSO concentration of 2.5%. The cell plates and diluted compound plates were put onto the VELOCITY11™ VPREP™ 384 ST where the compound plate was mixed and 5 μl of serially diluted compound or controls was added to the cell plate. The final concentration of the compounds was 25 μM serially diluted to 11.9 pM in 0.5% DMSO. The cell plates were then incubated with compound for two hours at 37° Celsius, 5% CO2. After two hours, the media in the cell plates was aspirated using the BioTek® ELx405HT plate washer (Winooski, Vt.) removing the majority of media and compound without disturbing the adherent U87 cells. The following assay reagents are components of the SureFire® Akt (Ser 473) Phosphorylation 50K Point Kit (TGR BioSciences, Adelaide, Australia) and an IgG Detection Kit (PerkinElmer, Waltham, Mass.). 5 μl of 1× Lysis Buffer was added to each well using the PerkinElmer® FlexDrop PLUS. The plates were then incubated at room temperature on a shaker for ten minutes. The AlphaScreen® reaction was prepared under low light conditions (subdued or green light) including p-Akt (Ser 473) Reaction Buffer, Dilution Buffer, Activation Buffer, Acceptor Beads and Donor Beads at a ratio of 40:20:10:1:1 respectively. The AlphaScreen® reaction was added to the cell lysate at 6 μl per well using the PerkinElmer® FlexDrop PLUS. The plates were placed in a humid environment to reduce edge effects and incubated overnight at room temperature with restricted air flow in the dark.
On the final day of the experiment, the plates were read on the PerkinElmer® EnVision™ 2103 Multilable Reader using the standard AlphaScreen® readout. The POC is calculated and the data is analyzed to report the IC50 IP for pAkt at Serine 473.

[4] = read-out: HCT116 Cell IC50, HCT116 cells, 2 h compound, IGF-1 stimulation, pAkt Ser473
[5] = Homo sapiens, HCT-116, 2 h, read-out: HCT116 Cell IC50, HCT116 cells, 2 h compound, IGF-1 stimulation, pAkt Ser473

T1 sequence (P42336 whole entry, species assumed): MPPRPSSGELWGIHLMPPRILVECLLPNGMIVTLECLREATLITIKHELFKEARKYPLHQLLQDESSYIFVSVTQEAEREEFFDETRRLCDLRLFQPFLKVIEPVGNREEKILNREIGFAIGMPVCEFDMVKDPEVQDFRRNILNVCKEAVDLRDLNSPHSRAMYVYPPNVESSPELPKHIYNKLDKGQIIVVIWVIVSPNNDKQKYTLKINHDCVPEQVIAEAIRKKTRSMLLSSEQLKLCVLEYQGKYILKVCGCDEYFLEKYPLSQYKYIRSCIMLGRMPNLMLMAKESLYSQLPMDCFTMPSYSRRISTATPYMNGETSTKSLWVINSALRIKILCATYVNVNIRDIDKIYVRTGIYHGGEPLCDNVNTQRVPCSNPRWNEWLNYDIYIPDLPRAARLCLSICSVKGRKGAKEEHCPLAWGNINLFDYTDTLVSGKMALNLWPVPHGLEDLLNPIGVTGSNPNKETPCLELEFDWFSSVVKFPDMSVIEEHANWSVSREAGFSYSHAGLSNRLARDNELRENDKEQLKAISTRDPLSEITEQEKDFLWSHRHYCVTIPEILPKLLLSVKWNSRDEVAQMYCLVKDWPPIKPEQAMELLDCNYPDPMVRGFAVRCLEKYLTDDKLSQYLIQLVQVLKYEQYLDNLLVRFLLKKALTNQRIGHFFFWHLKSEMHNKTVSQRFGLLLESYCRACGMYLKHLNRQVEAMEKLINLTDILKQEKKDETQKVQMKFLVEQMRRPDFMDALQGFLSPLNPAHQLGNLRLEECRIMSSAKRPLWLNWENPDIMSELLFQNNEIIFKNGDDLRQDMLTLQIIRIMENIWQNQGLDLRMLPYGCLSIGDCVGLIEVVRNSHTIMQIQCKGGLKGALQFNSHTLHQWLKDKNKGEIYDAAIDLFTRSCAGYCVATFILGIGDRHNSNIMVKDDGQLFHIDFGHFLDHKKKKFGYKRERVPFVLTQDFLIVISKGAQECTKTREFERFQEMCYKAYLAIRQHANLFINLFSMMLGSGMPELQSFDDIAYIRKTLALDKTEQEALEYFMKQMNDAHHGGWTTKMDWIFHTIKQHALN
T1 sequence (P27986 whole entry partner, species assumed): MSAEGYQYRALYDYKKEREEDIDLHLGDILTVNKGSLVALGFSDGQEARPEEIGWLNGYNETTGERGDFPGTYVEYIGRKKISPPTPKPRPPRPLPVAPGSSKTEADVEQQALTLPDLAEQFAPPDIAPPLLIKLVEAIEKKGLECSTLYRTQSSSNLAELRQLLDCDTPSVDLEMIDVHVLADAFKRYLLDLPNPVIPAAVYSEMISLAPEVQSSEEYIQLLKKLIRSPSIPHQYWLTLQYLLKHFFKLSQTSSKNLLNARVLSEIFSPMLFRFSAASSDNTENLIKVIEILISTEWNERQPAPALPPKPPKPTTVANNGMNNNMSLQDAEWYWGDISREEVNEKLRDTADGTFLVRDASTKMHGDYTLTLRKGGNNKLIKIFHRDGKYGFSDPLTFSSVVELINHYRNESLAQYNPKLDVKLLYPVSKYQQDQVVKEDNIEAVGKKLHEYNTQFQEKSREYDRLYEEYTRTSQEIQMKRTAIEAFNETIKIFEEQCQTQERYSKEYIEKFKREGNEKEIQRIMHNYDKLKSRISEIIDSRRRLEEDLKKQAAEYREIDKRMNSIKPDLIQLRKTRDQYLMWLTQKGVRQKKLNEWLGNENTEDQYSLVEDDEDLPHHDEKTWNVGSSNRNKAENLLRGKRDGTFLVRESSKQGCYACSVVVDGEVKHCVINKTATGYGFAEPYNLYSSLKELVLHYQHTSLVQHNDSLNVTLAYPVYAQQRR

IC50 [1] [nM] | IC50 [2, 4] [nM] | IC50 [3] [nM] | IC50 [2, 5] [nM] | IC50 ([3]; Homo sapiens, U-87 MG, 2 h) [nM] | SMILES
8 | 105 | 28 | – | – | CNC(C)c1ccc(S(=O)(=O)Nc2cc(-c3ccc4nc(NC(C)=O)cn4n3)cnc2Cl)cc1 (single isomer, unassigned) [Example 39, N-(6-(6-chloro-5-(4-(1-(methylamino)ethyl)phenylsulfonamido)pyridin-3-yl)imidazo[1,2-b]pyridazin-2-yl)acetamide]
7 | – | – | 31 | 14 | CC(=O)Nc1cn2nc(-c3cnc(Cl)c(NS(=O)(=O)c4ccc(F)cc4)c3)ccc2n1 [Example 12, N-(6-(6-chloro-5-(4-fluorophenylsulfonamido)pyridin-3-yl)imidazo[1,2-b]pyridazin-2-yl)acetamide]
5.7 | – | – | 218 | 133 | CC(=O)Nc1cn2nc(-c3cnc(Cl)c(NS(C)(=O)=O)c3)ccc2n1 [Example 19, N-(6-(6-Chloro-5-(methylsulfonamido)pyridin-3-yl)imidazo[1,2-b]pyridazin-2-yl)acetamide]
9 | 46 | – | – | 118 | CC(=O)Nc1cn2cc(-c3cnc(Cl)c(NS(=O)(=O)c4ccc(F)cc4)c3)ccc2n1 [Example 28, N-(6-(6-Chloro-5-(4-fluorophenylsulfonamido)pyridin-3-yl)imidazo[1,2-a]pyridin-2-yl)acetamide]
7 | – | – | 24 | 15 | CC(=O)Nc1cn2nc(-c3cnc(Cl)c(NS(=O)(=O)c4cccc(OC(F)F)c4)c3)ccc2n1 [Example 33, N-(6-(6-Chloro-5-(3-(difluoromethoxy)phenylsulfonamido)pyridin-3-yl)imidazo[1,2-b]pyridazin-2-yl)acetamide]
7 | – | – | 3 | 7 | CC(=O)Nc1cn2nc(-c3cnc(Cl)c(NS(=O)(=O)c4c(C)cccc4Cl)c3)ccc2n1 [Example 34, N-(6-(6-Chloro-5-(2-chloro-6-methylphenylsulfonamido)pyridin-3-yl)imidazo[1,2-b]pyridazin-2-yl)acetamide]
6 | – | – | 49 | 34 | CC(=O)Nc1cn2nc(-c3cnc(Cl)c(NS(=O)(=O)c4ccc(C(C)(C)O)cc4)c3)ccc2n1 [Example 35, N-(6-(6-Chloro-5-(4-(2-hydroxypropan-2-yl)phenylsulfonamido)pyridin-3-yl)imidazo[1,2-b]pyridazin-2-yl)acetamide]
83 | 2430 | – | – | 415 | Nc1cn2nc(-c3cnc(Cl)c(NS(=O)(=O)c4ccc(F)cc4)c3)ccc2n1 [Example 36, N-(5-(2-Aminoimidazo[1,2-b]pyridazin-6-yl)-2-chloropyridin-3-yl)-4-fluorobenzenesulfonamide]
5 | – | – | 55 | 21 | CC(=O)Nc1cn2nc(-c3cnc(Cl)c(NS(=O)(=O)c4ccc(F)cc4Cl)c3)ccc2n1 [Example 40, N-(6-(6-Chloro-5-(2-chloro-4-fluorophenylsulfonamido)pyridin-3-yl)imidazo[1,2-b]pyridazin-2-yl)acetamide]
6 | – | – | 75 | 47 | CC(=O)Nc1cn2nc(-c3cnc(Cl)c(NS(=O)(=O)N4CCOCC4)c3)ccc2n1 [Example 41, N-(6-(6-Chloro-5-(morpholine-4-sulfonamido)pyridin-3-yl)imidazo[1,2-b]pyridazin-2-yl)acetamide]
